The values that follow come from ChEMBL document CHEMBL5726441, “Isoindolone derivatives” (2017).

In this assay the target is Bromodomain-containing protein 4 (Homo sapiens, UniProt O60885). Put plainly: TR-FRET Assay: Compound dilution series were prepared in DMSO via a 3-fold serial dilution from 2.5 mM to 42 nM. Compounds were then diluted 6:100 in assay buffer (20 mM Sodium Phosphate, pH 6.0, 50 mM NaCl, 1 mM EDTA, 0.01% Triton X-100, 1 mM DTT) to yield 3× working solutions. Six microliters (μL) of the working solution was then transferred to white, low-volume assay plates (Costar #3673). A 1.5× assay mixture containing His-tagged bromodomain, Europium-conjugated anti-His antibody (Invitrogen PV5596) and the Alexa-647-conjugated probe molecule was also prepared. Twelve μL of this solution were added to the assay plate to reach a final volume of 18 μL. The final concentration of 1× assay buffer contains 2% DMSO, 50 μM−0.85 nM compound, 8 nM bromodomain, 1 nM antibody and 100 or 30 nM probe (for BDI or BDII, respectively). After a one-hour incubation at room temperature, TR-FRET ratios were determined using an Envision multilabel plate reader (Ex 340, Em 495/520).TR-FRET data were normalized to the means of 24 no-compound controls (high) and 8 controls containing 1 μM un-labeled probe (low). Percent inhibition was plotted as a function of compound concentration and the data were fit with the 4 parameter logistic equation to obtain IC50s Inhibition constants (Ki) were calculated from the IC50s, probe Kd and probe concentration. Typical Z′ values were between 0.65 and 0.75. The minimum significant ratio was determined to evaluate assay reproducibility (Eastwood et al., (2006) J Biomol Screen, 11: 253-261).
As usually defined, the Ki is the equilibrium dissociation constant of an inhibitor or competing ligand from its target. In the case of `Cc1[nH]c(-c2ccccc2CN2C(=O)c3ccccc3C2=O)c2c1C(=O)CCC2`, the inhibition constant Ki was 6.22 µM.

Take `Cc1[nH]c(-c2cccc3ccccc23)c2c1C(=O)CCC2`: the Ki is 0.943 µM.

In the case of `Cc1[nH]c(-c2ccccc2Oc2ccccc2)c2c1C(=O)CC(CC(C)C)C2` (stereo not drawn), the inhibition constant Ki is 3.62 µM.
